We go through two molecules from paper PMC7123434, “Development of High-Throughput Fluorescent-Based Screens to Accelerate Discovery of P2X Inhibitors from Animal Venoms” (Journal of Natural Products, 2019).

Holding throughout (assay type): cell-based
The target of assay [1] is T1, hP2X4 (Homo sapiens, UniProt Q99571).
T1 construct: expressed in transfected cells
T1 sequence (Q99571 1-388): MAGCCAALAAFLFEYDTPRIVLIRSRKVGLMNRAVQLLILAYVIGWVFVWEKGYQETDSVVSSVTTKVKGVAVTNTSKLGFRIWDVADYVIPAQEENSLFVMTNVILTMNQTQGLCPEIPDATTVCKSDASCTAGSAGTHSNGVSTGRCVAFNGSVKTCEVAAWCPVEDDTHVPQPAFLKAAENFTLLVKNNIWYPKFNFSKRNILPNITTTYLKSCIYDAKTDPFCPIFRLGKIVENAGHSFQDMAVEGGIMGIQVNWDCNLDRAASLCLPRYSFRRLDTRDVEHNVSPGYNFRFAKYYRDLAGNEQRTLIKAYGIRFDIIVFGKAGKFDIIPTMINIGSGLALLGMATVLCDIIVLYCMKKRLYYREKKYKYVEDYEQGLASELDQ
The experiment in a line: Fura-2 AM [Ca2+]i assay on 1321N1-hP2X4 cells. The following applies: used for fitting; Figure S1 A,B: 1321N1-hP2X4 and HEK293-hP2X4; read-out: ATP EC50.
Description: One day prior to measurements, 1321N1-hP2X4 cells were plated onto poly-D-lysine-coated 96-well plates at 2 × 10^4 cells/well. After 24 h, the cells were loaded for 1 h at 37 °C with 2 μM Fura-2 AM in Hank’s Balanced Salt Solution (HBSS, Gibco). The Fura-2 loading buffer dye was removed; then the cells were incubated in 80 μL of Etotal buffer, containing (in mM) 145 NaCl, 5 KCl, 1 MgCl2, 2 CaCl2, 13 D-glucose, 10 HEPES; pH 7.33. […] The injection volume was 10 μL with 150 μL pipette height and rate of 4 (∼62 μL/s). The run time was 300 s with 3.5 s intervals and 3 reads/well. The change in [Ca^2+]i concentration was calculated as the ratio of Fura-2 intensities at 520 emission from excitation at 340 and 380 nm (F ratio).

The next assay addresses T2, hP2X7 (Homo sapiens, UniProt Q99572).
T2 construct: expressed in transfected cells
T2 sequence (Q99572 1-595): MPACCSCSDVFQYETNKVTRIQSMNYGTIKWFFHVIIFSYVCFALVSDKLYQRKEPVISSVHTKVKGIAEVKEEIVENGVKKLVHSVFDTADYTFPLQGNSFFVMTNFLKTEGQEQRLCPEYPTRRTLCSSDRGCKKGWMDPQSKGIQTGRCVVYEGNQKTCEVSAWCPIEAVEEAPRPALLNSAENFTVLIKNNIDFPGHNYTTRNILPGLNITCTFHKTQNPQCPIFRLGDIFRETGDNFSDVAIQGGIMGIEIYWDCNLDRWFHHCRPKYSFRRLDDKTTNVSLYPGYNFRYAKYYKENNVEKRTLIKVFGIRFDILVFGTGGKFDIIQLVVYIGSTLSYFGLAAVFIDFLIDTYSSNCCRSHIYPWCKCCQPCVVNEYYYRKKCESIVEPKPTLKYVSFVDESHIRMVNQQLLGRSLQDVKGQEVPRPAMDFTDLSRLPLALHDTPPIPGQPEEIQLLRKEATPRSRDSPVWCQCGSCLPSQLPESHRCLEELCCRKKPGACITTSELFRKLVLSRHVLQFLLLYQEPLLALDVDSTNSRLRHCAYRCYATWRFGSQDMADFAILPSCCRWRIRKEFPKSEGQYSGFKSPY
Description: YOPRO-1 dye uptake assay on HEK293-hP2X7 cells. The following applies: used for fitting; Figure S1C: HEK293-hP2X7; read-out: ATP EC50. The protocol:
(§1) This method was adapted and further optimized from Patrice et al.[50] One day prior to measurements, HEK293-hP2X4 and HEK293-hP2X7 cells were plated on poly-D-lysine-coated 96-well plates at 2 × 10^4 cells/well. After 24 h, the culture media was aspirated, and 80 μL of YOPRO-1 assay buffer (145 mM NaCl, 5 mM KCl, 0.1 mM CaCl2, 13 mM D-glucose, 10 mM HEPES; pH 7.35) with 2 μM YOPRO-1 was applied. […] The injection volume was 10 μL with a 150 μL pipet height and rate of 4 (∼62 μL/s). The run time was 300 s with a 3.9 s interval, 6 reads/well, and 77 reads in total. Measurement parameters were as follows: bottom reading, excitation wavelength (490 nm), emission wavelength (520 nm).

Assay [2] addresses T1, hP2X4. Description: YOPRO-1 dye uptake assay on HEK293-hP2X4 cells. The protocol:
as §1

As a reminder, the EC50 is the concentration that produces a half-maximal response. In the case of `Nc1ncnc2c1ncn2[C@@H]1O[C@H](COP(=O)(O)OP(=O)(O)OP(=O)(O)O)[C@@H](O)[C@H]1O` [ATP], the EC50 on hP2X4 [1] is 1.6 µM; at hP2X7, 300 µM.

The term inhibition denotes the share of the control response that was lost under treatment. A high value points to a response far below the control. As for `CC(C)c1cc(Br)c(NC(=O)Nc2cccnc2)c(Br)c1` [BX430], on hP2X4 [2] (10 μM, hP2X4, cell line not stated), the inhibition at 10 µM stood at 75%. Also, the “Normalised Mean” value on hP2X4 [2] (AUC signal normalised to positive control (10 µM ATP) = 1.0, HEK293-hP2X4) stood at 1.05.
